The data set can be described thus: gradient 5% acetonitrile 3 min, to 50% in 2 min, to 85% in 15 min, held 3 min, 100 µL/min. The note with it: column: Zorbax Extend-C18 2.1 x 50 mm; eluents: water / acetonitrile, 0.1% formic acid. The gist of the method: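 Retention time was recorded from adduct peaks, which were picked computationally and each inspected manually. Pure standards ran in mixtures of ~100 molecules on HPLC coupled to a quadrupole time-of-flight mass spectrometer, in positive and negative ionization mode, through a Zorbax Extend-C18 column (2.1 × 50 mm, 1.8 μm) at 100 μL/min. Eluents were water and acetonitrile, each with 0.1% formic acid.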
Consider `CNC(=O)[C@@H]1CN(C(=O)c2cccc(Br)c2)C[C@H]1CO`, for which the RP-LC retention time came to 586 s.

Compound `Cc1nn(CC(=O)Nc2ccccc2C(F)(F)F)c(C)c1[N+](=O)[O-]` showed an RP-LC retention time of 792 s.

The compound `CNC(=O)N1c2ccccc2CC1c1nc(C(C)C)no1` (centres undefined) showed an RP-LC retention time of 799 s.

The compound `CC1CN=C2C(N3CCN(C(=O)c4ccc(C#N)cc4)CC3)=NC=CN21` (centres undefined) yielded an RP-LC retention time of 678 s.

Take `CCCc1ccc(S(=O)(=O)N2C[C@@H](F)C[C@H]2C(=O)N2CCCCC2)cc1`: the RP-LC retention time came out at 937 s.

For `CCOc1ccc(NC(=O)Cn2ncc3c(c2=O)N(C2CC2)C(=O)CS3)cc1`, the RP-LC retention time worked out at 671 s.

`O=C(Cn1nc2c(SC3CCCCC3)nccn2c1=O)NC1CCCC1` displayed an RP-LC retention time of 939 s.

`CCCn1c(CCNC(=O)c2ccccc2)nc2cccnc21` returned an RP-LC retention time of 633 s.

As for `O=C(c1cccs1)N1CCCC(c2nn[nH]n2)C1` (centres undefined), the RP-LC retention time worked out at 627 s.

`O=C(Cn1cnc2c(sc3nc(-c4ccccc4)ccc32)c1=O)NCc1ccco1`: the RP-LC retention time worked out at 887 s.

`Cc1csc(NC(=O)c2cc(Sc3nncn3C)ccc2N)n1`: the RP-LC retention time is 700 s.

In turn, `COc1ccc(NS(=O)(=O)c2cc(-c3[nH]ncc3C(=O)N(C)C)oc2C)c(C)c1` showed an RP-LC retention time of 681 s.

In turn, `COc1ccc(C(=O)N2CCN(C(=O)c3ccco3)CC2)nn1` came in with an RP-LC retention time of 576 s.

In the case of `O=C(CSc1nnc(NC(=O)c2cccc([N+](=O)[O-])c2)s1)Nc1nccs1`, the RP-LC retention time was determined as 702 s.

`O=C(CC1COc2ccccc2NC1=O)NCCc1cccs1` (centres undefined) had an RP-LC retention time of 689 s.

Regarding `CCn1cc(S(=O)(=O)N2CCC(N3CC4(CCCCC4)C3c3ccccc3)CC2)cn1` (centres undefined), the RP-LC retention time turned out to be 660 s.

`CN(C)C(=O)c1ccc2c(c1)CCN2C(=O)C1CCCC1` yielded an RP-LC retention time of 720 s.

The compound `COc1ccc(-n2ccnc(NC(=O)Nc3ccccc3)c2=O)cc1OC` came in with an RP-LC retention time of 829 s.

As for `O=C(Nc1ccc(OCc2nnc(-c3ccc(Cl)cc3)o2)cc1)c1ccoc1`, the RP-LC retention time was determined as 942 s.

Take `Cc1ccc(CNC(=O)CSc2ccc(N3CCCC(C(=O)NC4CC4)C3)nn2)cc1` (centres undefined): the RP-LC retention time came to 643 s.

For `CCOC(=O)C1CCCN(C(=O)Cn2c3ccccc3c3cnn(C)c(=O)c32)C1` (centres undefined), the RP-LC retention time is 826 s.

On to `CCc1ccc(-c2cc(C(F)(F)F)on2)cc1S(=O)(=O)N1CCCCC1CC` (centres undefined), for which the RP-LC retention time came to 749 s.

As to `CC(C)(C)NC(=O)Cn1ccn2nc(-c3ccccc3)c(CO)c2c1=O`, the RP-LC retention time was 721 s.

Take `Cc1ccc(-c2noc(C3CC(=O)N(c4ccc(C)c(F)c4)C3)n2)cc1` (centres undefined): the RP-LC retention time was found to be 1110 s.

The compound `Cc1cc(C)c(S(=O)(=O)N2CCCC2c2nc(-c3cccc(Cl)c3)no2)c(C)c1` (centres undefined) displayed an RP-LC retention time of 1350 s.

For the compound `CC(C)CNC(=O)c1cn(-c2ccc(S(=O)(=O)N3CCCC(C)C3)cn2)cn1` (centres undefined), the RP-LC retention time came out at 936 s.

Take `CN(C)c1ccc(Nc2nc(-c3ccc(O)cc3O)cs2)cc1`: the RP-LC retention time is 850 s.

`COc1ccc(S(=O)(=O)N2C[C@@H]3C[C@H]2C[C@@H]3NC(=O)c2ccccc2)cc1Cl` had an RP-LC retention time of 861 s.

In the case of `CCOC(=O)c1c(C)[nH]c(C(=O)N2CCC(CC(=O)NCc3ccc(N(C)C)cc3)CC2)c1C`, the RP-LC retention time worked out at 620 s.

On to `O=C(O)CC1CCCN(c2cn[nH]c(=O)c2)C1` (centres undefined), for which the RP-LC retention time stood at 570 s.

`O=S(=O)(c1cccs1)N1CCN(c2cnn3cnnc3c2)CC1` registered an RP-LC retention time of 652 s.

`COc1ccc2[nH]cc(CN3CCC([C@H]4[C@@H](OC)C(=O)N4C(C)C)CC3)c2c1`: the RP-LC retention time worked out at 623 s.

`COc1ccc(Cl)cc1NC(=O)CSc1ccc(NC(=O)c2ccco2)nn1` yielded an RP-LC retention time of 851 s.

`Cc1nc2c(NS(=O)(=O)c3ccc(F)cc3)cccn2n1` registered an RP-LC retention time of 715 s.

Compound `Cc1noc(-c2cccnc2N2CCCN(Cc3cc(F)cc(F)c3)CC2)n1` had an RP-LC retention time of 659 s.

The compound `COCCNC(=O)CN1CCN(c2cc(C(=O)O)c3cc(NC(=O)C(C)(C)C)ccc3n2)CC1` displayed an RP-LC retention time of 561 s.

`COc1ccc(-c2noc(-c3ccc(=O)n(Cc4c(F)cccc4Cl)c3)n2)cc1` showed an RP-LC retention time of 1010 s.

Compound `Clc1ccc(Nc2nc(-c3ccncc3)nc3ccccc23)cc1` gave an RP-LC retention time of 848 s.

For the compound `CN(CC1CCOCC1)C(=O)Nc1cccc(F)c1`, the RP-LC retention time came out at 720 s.

The compound `CCOc1cc(-c2noc(-c3nnn4c3COC(c3ccc(F)cc3)C4)n2)ccc1OC` (centres undefined) displayed an RP-LC retention time of 1130 s.

In the case of `Cc1ccc(C)c(NC(=O)Cn2c(C)nc3c(sc4nc(-c5ccccc5)ccc43)c2=O)c1`, the RP-LC retention time was found to be 1090 s.

As for `COc1cc(OC)c(NC(=O)N2CCN(c3ccc(=O)n(-c4ccc(C)cc4)n3)CC2)cc1Cl`, the RP-LC retention time is 877 s.

Take `CCc1ccc(C2=C(C)C(N3CCCN(C(=O)Cn4ccnc4)CC3)=NS2(=O)=O)cc1`: the RP-LC retention time was determined as 642 s.

`Cc1ccc(NC(=O)N2CCOCCNC(=O)[C@H]3CCCC[C@H]32)cc1C`: the RP-LC retention time turned out to be 829 s.

In turn, `Cc1ccc(NC(=O)N2CCc3c(c(-c4nc(C)no4)nn3C)C2)c(C)c1` gave an RP-LC retention time of 762 s.

Turning to `CCOC(=O)N1CCN(S(=O)(=O)c2cn(C)c(=O)n(C)c2=O)CC1`, the RP-LC retention time was found to be 621 s.

Regarding `Cc1cc(C)n(CCC(=O)NCC23CCC=C2N(CC2CC2)C(=O)CC3)n1` (centres undefined), the RP-LC retention time came to 698 s.

`COCCNC(=O)C1CCN(C(=O)Nc2ccc(NC(=O)Nc3ccccc3)cc2)CC1` gave an RP-LC retention time of 678 s.

In the case of `Cc1cccc(NC(=O)N2CCC3(CC2)NC(=O)c2cc(F)ccc2N3C)c1`, the RP-LC retention time came to 748 s.

As for `Cc1cc2c(c(=O)n(-c3ccc(F)cc3)c(=O)n2CC(=O)Nc2cccc(C(F)(F)F)c2)n1C`, the RP-LC retention time was found to be 933 s.

On to `CC1CN(S(=O)(=O)c2cccc(-c3cn4cc(Cl)ccc4n3)c2)CC(C)O1` (centres undefined), for which the RP-LC retention time came to 873 s.

Compound `COc1ccc(Cl)cc1NC(=O)N1CCC(n2cnc3ccc(F)cc3c2=O)CC1` returned an RP-LC retention time of 871 s.

Consider `CC1CCN(c2nc3c(c(=O)n(Cc4ccccc4Cl)c(=O)n3C)n2C)CC1`, for which the RP-LC retention time came out at 1170 s.

Turning to `O=C(Nc1cccc(-c2cn3cccnc3n2)c1)c1ccc(F)c(F)c1`, the RP-LC retention time worked out at 706 s.

`Cc1nn(-c2cc(N3CCCCC3)ncn2)c(C)c1CCC(=O)NCc1ccco1`: the RP-LC retention time came to 811 s.

`Cc1ccc2[nH]cc(CCN3CC(C(=O)NC4CCCCC4)CC3=O)c2c1` (centres undefined) yielded an RP-LC retention time of 819 s.

Take `Cc1ccc(Cn2c(CN3CCC(C(=O)N4CCOCC4)CC3)cc3ccccc32)cc1`: the RP-LC retention time is 717 s.

On to `COCCN1C(=O)CCc2cc(NC(=O)c3cncc(Br)c3)ccc21`, for which the RP-LC retention time stood at 716 s.

`CCN1C(=O)c2cccnc2Sc2cc(NC(=O)c3cccnc3)ccc21`: the RP-LC retention time turned out to be 637 s.

As to `O=S(=O)(c1ccc2c(c1)CCC2)N1CCCn2nc(-c3cccs3)cc2C1`, the RP-LC retention time came out at 1060 s.

Take `Cc1ccc(Cn2nc3ccc(S(=O)(=O)N4CCc5ccccc5C4)cn3c2=O)cc1`: the RP-LC retention time was determined as 1050 s.

Regarding `O=C(CCC1CCCCC1)NC1CCN(c2ccc(=O)n(CC3CC3)n2)CC1`, the RP-LC retention time was determined as 924 s.

For the compound `CCCn1ccc2oc(C)c(C(=O)NCc3ccc(CC)cc3)c2c1=O`, the RP-LC retention time amounted to 1170 s.

`CC(C)NC(=O)CN1CCN(c2cc(C(=O)O)c3cc(NC(=O)c4ccc(F)cc4)ccc3n2)CC1` showed an RP-LC retention time of 603 s.

`CSc1ccc(-c2noc(Cn3cnc4c(cnn4-c4ccc(C)c(Cl)c4)c3=O)n2)cc1`: the RP-LC retention time amounted to 1270 s.

For the compound `CCc1noc(CC2CCOC3(CCN(S(=O)(=O)c4c(C)cc(C)cc4C)CC3)C2)n1` (centres undefined), the RP-LC retention time worked out at 1190 s.

`Cc1nn(C)c2nc(OCC(=O)Nc3ccccc3Cl)cc(C(F)(F)F)c12`: the RP-LC retention time is 1130 s.

`CCCN1C(=O)c2c(C(=O)NCc3ccccc3F)ncn2CC1(C)C(=O)NCc1ccccc1` (centres undefined) gave an RP-LC retention time of 812 s.

`CCc1nc2onc(C)c2c(=O)n1CC(=O)NCc1ccccc1F`: the RP-LC retention time was found to be 792 s.

Turning to `CCOC(=O)c1cnc(N2CCN(c3ccccc3F)CC2)c2ccccc12`, the RP-LC retention time worked out at 1350 s.

Consider `O=C(CN1C(=O)C2CCCCN2c2ccc(C(=O)N3CCCC3)cc21)Nc1cccc(Cl)c1` (centres undefined), for which the RP-LC retention time was 676 s.

`O=C(NCc1ccccc1F)C1=C2CCCN2c2ccccc2S1(=O)=O` returned an RP-LC retention time of 818 s.

Turning to `COc1cccc(NC(=O)Cn2c(=O)c(CCC(=O)NCC(C)C)nc3ccccc32)c1`, the RP-LC retention time is 798 s.

For `Cc1cc(N2CCN(C(=O)Nc3cccc(C)c3C)CC2)nc(N2CCOCC2)n1`, the RP-LC retention time was 633 s.

In turn, `O=c1n(Cc2cc(F)cc(F)c2)nc2c(S(=O)(=O)N3CCc4ccccc4C3)cccn12` came in with an RP-LC retention time of 966 s.

On to `CN1C(=O)c2cccnc2Sc2cc(NC(=O)COc3ccccc3)ccc21`, for which the RP-LC retention time turned out to be 813 s.

`Cn1cnnc1C1CCCCN1C(=O)COc1ccc(F)c(F)c1` (centres undefined) had an RP-LC retention time of 682 s.

In turn, `CC(C)CC(=O)N1CCN(c2ccc(=O)n(-c3ccc(C(C)C)cc3)n2)CC1` displayed an RP-LC retention time of 902 s.

`Cc1ncnc2c1CCC(=O)N2Cc1cccnc1` came in with an RP-LC retention time of 539 s.

Values taken from the METLIN SMRT retention time set (Domingo-Almenara et al. 2019).
